# Measured values published in patent US20110144049A1, “Treating Cardiac Arrhythmias, Heart Failure, Peripheral Artery Disease and Stroke with Cyclopentyl-Triazolo-Pyrimidine or Derivative Thereof” (priority 2009, published 2011).
# Assays:
# randomized patients = assay: Listed Causes of Death from Efficacy Data Set (by randomized treatment); assay type: in vivo; settings: Ticagrelor 90 mg bd N = 9333; Clopidcgrel 75 mg cd N = 9291
# From the text: Causes of death were similar between treatment groups. The most common cause of death was myocardial infarction occurring in about 1% of randomized patients. Sudden death, heart failure, other vascular events and stroke were among the more common causes of death.
# [1] = system: individuals undergoing coronary stent implantation for therapy of Acute Coronary Syndrome (ASC); assay: large randomized study, primary end point (death from vascular causes, MI or stroke); assay type: in vivo
smiles,measurement,setting,value
COC(=O)[C@H](c1ccccc1Cl)N1CCc2sccc2C1 [clopidogrel],"Cause of death: Aortic dissection, number",randomized patients,2
same,"Cause of death: Aortic dissection, percent",randomized patients,(0.0%)
same,"Cause of death: Arterial embolism, number",randomized patients,2
same,"Cause of death: Arterial embolism, percent",randomized patients,(0.0%)
same,"Cause of death: Cancer, number",randomized patients,17
same,"Cause of death: Cancer, percent",randomized patients,(0.2%)
same,"Cause of death: Cardiac arrhythmia, number",randomized patients,29
same,"Cause of death: Cardiac arrhythmia, percent",randomized patients,(0.3%)
same,"Cause of death: Death from bleeding (not related to trauma), number",randomized patients,15
same,"Cause of death: Death from bleeding (not related to trauma), percent",randomized patients,(0.2%)
same,"Cause of death: Endocarditis, number",randomized patients,0
same,"Cause of death: Endocarditis, percent",randomized patients,(0.0%)
same,"Cause of death: Heart failure, number",randomized patients,62
same,"Cause of death: Heart failure, percent",randomized patients,(0.7%)
same,"Cause of death: Liver failure, number",randomized patients,1
same,"Cause of death: Liver failure, percent",randomized patients,(0.0%)
same,"Cause of death: Multiorgan failure, number",randomized patients,14
same,"Cause of death: Multiorgan failure, percent",randomized patients,(0.2%)
same,"Cause of death: Myocardial infarction, number",randomized patients,89
same,"Cause of death: Myocardial infarction, percent",randomized patients,(0.9%)
same,"Cause of death: Other coronary artery disease, number",randomized patients,4
same,"Cause of death: Other coronary artery disease, percent",randomized patients,(0.0%)
same,"Cause of death: Other non-vascular cause, number",randomized patients,11
same,"Cause of death: Other non-vascular cause, percent",randomized patients,(0.1%)
same,"Cause of death: Other vascular cause, number",randomized patients,55
same,"Cause of death: Other vascular cause, percent",randomized patients,(0.6%)
same,"Cause of death: Pneumonia, number",randomized patients,8
same,"Cause of death: Pneumonia, percent",randomized patients,(0.1%)
same,"Cause of death: Pulmonary embolism, number",randomized patients,8
same,"Cause of death: Pulmonary embolism, percent",randomized patients,(0.1%)
same,"Cause of death: Renal failure, number",randomized patients,5
same,"Cause of death: Renal failure, percent",randomized patients,(0.1%)
same,"Cause of death: Respiratory failure, number",randomized patients,12
same,"Cause of death: Respiratory failure, percent",randomized patients,(0.1%)
same,"Cause of death: Ruptured aortic aneurysm, number",randomized patients,0
same,"Cause of death: Ruptured aortic aneurysm, percent",randomized patients,(0.0%)
same,"Cause of death: Sepsis, number",randomized patients,23
same,"Cause of death: Sepsis, percent",randomized patients,(0.2%)
same,"Cause of death: Stroke, number",randomized patients,18
same,"Cause of death: Stroke, percent",randomized patients,(0.2%)
same,"Cause of death: Sudden death, number",randomized patients,77
same,"Cause of death: Sudden death, percent",randomized patients,(0.8%)
same,"Cause of death: Suicida, number",randomized patients,1
same,"Cause of death: Suicida, percent",randomized patients,(0.0%)
same,"Cause of death: Trauma, number",randomized patients,1
same,"Cause of death: Trauma, percent",randomized patients,(0.0%)
same,"Cause of death: Unknown, number",randomized patients,58
same,"Cause of death: Unknown, percent",randomized patients,(0.6%)
same,"Cause of death: Unstable angina, number",randomized patients,8
same,"Cause of death: Unstable angina, percent",randomized patients,(0.1%)
same,"Cause of death: Valvular disease, number",randomized patients,1
same,"Cause of death: Valvular disease, percent",randomized patients,(0.0%)
same,"Cause of death: Vascular death, sub-classification missing, number",randomized patients,1
same,"Cause of death: Vascular death, sub-classification missing, percent",randomized patients,(0.0%)
same,"primary end point: first event of death from vascular causes, myocardial infarction (MI) or stroke, occurred in % of patients",[1],11.7%
"CCCSc1nc(N[C@@H]2C[C@H]2c2ccc(F)c(F)c2)c2nnn([C@@H]3C[C@H](OCCO)[C@@H](O)[C@H]3O)c2n1 [Ticagrelor, (1S,2S,3R,5S)-3-[7-[(1R,2S)-2-(3,4-Difluorophenyl)cyclopropylamino]-5-(propylthio)-3H-[1,2,3]triazolo[4,5-d]pyrimidin-3-yl]-5-(2-hydroxyethoxy)cyclopentane-1,2-diol]","Cause of death: Aortic dissection, number",randomized patients,1
same,"Cause of death: Aortic dissection, percent",randomized patients,(0.0%)
same,"Cause of death: Arterial embolism, number",randomized patients,0
same,"Cause of death: Arterial embolism, percent",randomized patients,(0.0%)
same,"Cause of death: Cancer, number",randomized patients,14
same,"Cause of death: Cancer, percent",randomized patients,(0.2%)
same,"Cause of death: Cardiac arrhythmia, number",randomized patients,20
same,"Cause of death: Cardiac arrhythmia, percent",randomized patients,(0.2%)
same,"Cause of death: Death from bleeding (not related to trauma), number",randomized patients,13
same,"Cause of death: Death from bleeding (not related to trauma), percent",randomized patients,(0.1%)
same,"Cause of death: Endocarditis, number",randomized patients,0
same,"Cause of death: Endocarditis, percent",randomized patients,(0.0%)
same,"Cause of death: Heart failure, number",randomized patients,51
same,"Cause of death: Heart failure, percent",randomized patients,(0.5%)
same,"Cause of death: Liver failure, number",randomized patients,0
same,"Cause of death: Liver failure, percent",randomized patients,(0.0%)
same,"Cause of death: Multiorgan failure, number",randomized patients,9
same,"Cause of death: Multiorgan failure, percent",randomized patients,(0.1%)
same,"Cause of death: Myocardial infarction, number",randomized patients,89
same,"Cause of death: Myocardial infarction, percent",randomized patients,(1.0%)
same,"Cause of death: Other coronary artery disease, number",randomized patients,4
same,"Cause of death: Other coronary artery disease, percent",randomized patients,(0.0%)
same,"Cause of death: Other non-vascular cause, number",randomized patients,8
same,"Cause of death: Other non-vascular cause, percent",randomized patients,(0.1%)
same,"Cause of death: Other vascular cause, number",randomized patients,44
same,"Cause of death: Other vascular cause, percent",randomized patients,(0.5%)
same,"Cause of death: Pneumonia, number",randomized patients,10
same,"Cause of death: Pneumonia, percent",randomized patients,(0.1%)
same,"Cause of death: Pulmonary embolism, number",randomized patients,3
same,"Cause of death: Pulmonary embolism, percent",randomized patients,(0.0%)
same,"Cause of death: Renal failure, number",randomized patients,2
same,"Cause of death: Renal failure, percent",randomized patients,(0.0%)
same,"Cause of death: Respiratory failure, number",randomized patients,13
same,"Cause of death: Respiratory failure, percent",randomized patients,(0.1%)
same,"Cause of death: Ruptured aortic aneurysm, number",randomized patients,1
same,"Cause of death: Ruptured aortic aneurysm, percent",randomized patients,(0.0%)
same,"Cause of death: Sepsis, number",randomized patients,7
same,"Cause of death: Sepsis, percent",randomized patients,(0.1%)
same,"Cause of death: Stroke, number",randomized patients,20
same,"Cause of death: Stroke, percent",randomized patients,(0.2%)
same,"Cause of death: Sudden death, number",randomized patients,60
same,"Cause of death: Sudden death, percent",randomized patients,(0.6%)
same,"Cause of death: Suicida, number",randomized patients,1
same,"Cause of death: Suicida, percent",randomized patients,(0.0%)
same,"Cause of death: Trauma, number",randomized patients,3
same,"Cause of death: Trauma, percent",randomized patients,(0.0%)
same,"Cause of death: Unknown, number",randomized patients,39
same,"Cause of death: Unknown, percent",randomized patients,(0.4%)
same,"Cause of death: Unstable angina, number",randomized patients,7
same,"Cause of death: Unstable angina, percent",randomized patients,(0.1%)
same,"Cause of death: Valvular disease, number",randomized patients,0
same,"Cause of death: Valvular disease, percent",randomized patients,(0.0%)
same,"Cause of death: Vascular death, sub-classification missing, number",randomized patients,0
same,"Cause of death: Vascular death, sub-classification missing, percent",randomized patients,(0.0%)
